# Test results reported in ChEMBL document CHEMBL3044843, “Synthesis of 1,2,3-triazole tethered bifunctional hybrids by click chemistry and their cytotoxic studies” (2013).
# Counter-ions that a name gives are not always drawn.
# Legend:
# Assay type in all cases: functional
# Settings in all cases: read-out: GI
# THP-1 [1] = assay: Growth inhibition of Homo sapiens (human) THP1 cells at 100 uM by SRB assay
# COLO 205 [2] = assay: Growth inhibition of Homo sapiens (human) COLO205 cells at 10 uM by SRB assay
# A549 [3] = assay: Growth inhibition of Homo sapiens (human) A549 cells at 100 uM by SRB assay
# A549 [4] = assay: Growth inhibition of Homo sapiens (human) A549 cells at 10 uM by SRB assay
# COLO 205 [5] = assay: Growth inhibition of Homo sapiens (human) COLO205 cells at 100 uM by SRB assay
# THP-1 [6] = assay: Growth inhibition of Homo sapiens (human) THP1 cells at 10 uM by SRB assay
# COLO 205 [7] = assay: Growth inhibition of Homo sapiens (human) COLO205 cells at 1 uM by SRB assay
Structure (SMILES),inhibition of growth at 100 µM (THP-1 [1]) [%],inhibition of growth at 10 µM (COLO 205 [2]) [%],inhibition of growth at 100 µM (A549 [3]) [%],inhibition of growth at 10 µM (A549 [4]) [%],inhibition of growth at 100 µM (COLO 205 [5]) [%],inhibition of growth at 10 µM (THP-1 [6]) [%],inhibition of growth at 1 µM (COLO 205 [7]) [%]
COc1ccc(C2CC(c3ccc(OCc4cn(Cc5ccc([N+](=O)[O-])cc5)nn4)cc3)=NN2C(C)=O)cc1OC (stereo not given),9,9,36,11,38,8,–
CC(=O)O[C@H]1C(=O)[C@@]2(C)[C@H]([C@H](OC(=O)c3ccccc3)[C@]3(O)C[C@H](OC(=O)[C@H](O)[C@@H](NC(=O)c4ccccc4)c4ccccc4)C(C)=C1C3(C)C)[C@]1(OC(C)=O)CO[C@@H]1C[C@@H]2O [PACLITAXEL],–,–,–,59,–,62,–
COc1cc(C2CC(c3cc(OC)c(OC)c(OC)c3)=NN2C(C)=O)ccc1OCc1cn(Cc2ccc([N+](=O)[O-])cc2)nn1 (stereo not given),43,60,85,68,99,29,–
COc1cc(C2CC(c3ccc(OCc4cn(Cc5ccc([N+](=O)[O-])cc5)nn4)cc3)=NN2C(C)=O)ccc1OCc1cn(Cc2ccc([N+](=O)[O-])cc2)nn1 (stereo not given),15,27,42,29,51,0,–
COc1cccc2c1C(=O)c1c(O)c3c(c(O)c1C2=O)C[C@@](O)(C(=O)CO)C[C@@H]3O[C@H]1C[C@H](N)[C@H](O)[C@H](C)O1 [DOXORUBICIN HYDROCHLORIDE],–,–,–,–,–,–,72
COc1cc(C2CC(c3ccccc3)=NN2C(C)=O)ccc1OCc1cn(Cc2ccc([N+](=O)[O-])cc2)nn1 (stereo not given),10,7,11,0,11,0,–
COc1cc(C2CC(c3ccc(Br)cc3)=NN2C(C)=O)ccc1OCc1cn(Cc2ccc([N+](=O)[O-])cc2)nn1 (stereo not given),23,26,17,0,47,1,–
CO[C@@]12[C@H](COC(N)=O)C3=C(C(=O)C(C)=C(N)C3=O)N1C[C@@H]1N[C@@H]12 [MITOMYCIN],–,–,–,–,–,65,–
COc1cc(C2CC(c3ccc([N+](=O)[O-])cc3)=NN2C(C)=O)ccc1OCc1cn(Cc2ccc([N+](=O)[O-])cc2)nn1 (stereo not given),59,33,72,39,85,7,–
COc1cc(C2CC(c3cccc4ccccc34)=NN2C(C)=O)ccc1OCc1cn(Cc2ccc([N+](=O)[O-])cc2)nn1 (stereo not given),79,46,95,89,72,10,–
COc1cc(C2CC(c3ccc(Cl)cc3)=NN2C(C)=O)ccc1OCc1cn(Cc2ccc([N+](=O)[O-])cc2)nn1 (stereo not given),37,0,0,0,10,17,–
COc1ccc(C2=NN(C(C)=O)C(c3ccc(OCc4cn(Cc5ccc([N+](=O)[O-])cc5)nn4)c(OC)c3)C2)cc1 (stereo not given),14,10,84,43,75,8,–
COc1ccc(C2CC(c3ccc(OCc4cn(Cc5ccc([N+](=O)[O-])cc5)nn4)cc3)=NN2C(C)=O)cc1 (stereo not given),26,4,33,26,37,15,–
CC(=O)N1N=C(c2ccc(OCc3cn(Cc4ccc([N+](=O)[O-])cc4)nn3)cc2)CC1c1ccccc1 (stereo not given),22,18,80,15,55,0,–
